Source: ChEMBL document CHEMBL1126639, “Centrally acting serotonergic and dopaminergic agents. 2. Synthesis and structure-activity relationships of 2,3,3a,4,9,9a-hexahydro-1H-benz[f]indole derivatives” (J Med Chem, 1993)

Assays:
[1] = target: Sodium-dependent dopamine transporter (Rattus norvegicus) (UniProt P23977); assay: (§1) Inhibition of firing rates of dopaminergic neurons in the substantia nigra pars compacta by intravenous injection in rats.; assay type: functional, tissue-based
[2] = target: Sodium-dependent dopamine transporter (Rattus norvegicus) (UniProt P23977); assay: Inhibition of firing rates of serotonergic neurons in the dorsal raphe nucleus by intravenous injection in rats.; assay type: functional, tissue-based
[3] = test system: Mus musculus; assay: Effective dose on hypothermia in mouse when administered subcutaneously; assay type: functional; conditions: sc
[4] = test system: Mus musculus; assay: Effective dose on hypothermia in mouse when administered through peroral route; assay type: functional; conditions: Mus musculus, po; read-out: ED50
[5] = species on record: Mus musculus; assay: Time of effect in the face-to-face behavioral assay in the mouse […]; assay type: functional
[6] = test system: Mus musculus; assay: Time of effect in the face-to-face behavioral assay in the mouse when a dose of 0.3 micro mol/kg is administered subcutaneously; assay type: functional
[7] = test system: Mus musculus; assay: Time of effect in the face-to-face behavioral assay in the mouse when a dose of 3.0 micro mol/kg is administered subcutaneously; assay type: functional
[8] = test system: Mus musculus; assay: Time of effect in the face-to-face behavioral assay in the mouse when a dose of 30 micro mol/kg is administered subcutaneously; assay type: functional
[9] = test system: Mus musculus; assay: Time of effect in the isolation-induced aggression behavioral assay in the mouse when a dose of 0.9 micro mol/kg is administered intraperitoneally; assay type: functional
[10] = test system: Mus musculus; assay: Time of effect in the isolation-induced aggression behavioral assay in the mouse when a dose of 3.0 micro mol/kg is administered intraperitoneally; assay type: functional
[11] = test system: Mus musculus; assay: Maximum decrease in temperature when compound is administered subcutaneously; assay type: functional
[12] = test system: Mus musculus; assay: Maximum decrease in temperature when compound is administered through peroral route; assay type: functional
[13] = test system: Mus musculus; assay: Time of effect in the isolation-induced aggression behavioral assay in the mouse when a dose of 30 micro mol/kg is administered intraperitoneally; assay type: functional
[14] = test system: Mus musculus; assay: Time of effect in the isolation-induced aggression behavioral assay in the mouse when a dose of 0.3 micro mol/kg is administered intraperitoneally; assay type: functional
[15] = test system: Mus musculus; assay: Time of effect in the isolation-induced aggression behavioral assay in the mouse when a dose of 9.1 micro mol/kg is administered intraperitoneally; assay type: functional
[16] = test system: Rattus norvegicus; assay: Effect on the synthesis rates of dopamine in the rat ventral limbic brain region at 0.3 micro mol/kg.; assay type: functional, Limbic system
[17] = test system: Rattus norvegicus; assay: Effect on the synthesis rates of serotonin in the rat ventral limbic brain region 0.3 micro mol/kg.; assay type: functional, Limbic system
[18] = test system: Rattus norvegicus; assay: Effect on the synthesis rates of serotonin in the rat ventral limbic brain region 3.0 micro mol/kg.; assay type: functional, Limbic system
[19] = test system: Rattus norvegicus; assay: Effect on the synthesis rates of dopamine in the rat ventral limbic brain region at 3.0 micro mol/kg; assay type: functional, Limbic system
[20] = species on record: Felis catus; assay: Percent of arterial blood pressure at sympathetic nerve activity (SND) dose value was determined; assay type: functional
[21] = test system: Felis catus; assay: Maximum decrease of arterial blood pressure at sympathetic nerve activity (SND) in anesthetized cat has been observed following 1 mg/kg dose; assay type: functional; parameters: scale not given: the % may be the effect or the level left
[22] = test system: Felis catus; assay: Maximum decrease of sympathetic nerve activity (SND) in anesthetized cat has been expressed as percent control; assay type: functional; parameters: scale not given: the % may be the effect or the level left
[23] = test system: Felis catus; assay: Effective dose at which the sympathetic nerve activity (SND) has been reduced to 50% of the pretreatment value in anesthetized cat; assay type: functional
[24] = target: D(2) dopamine receptor (Homo sapiens, UniProt P14416); assay: Binding affinity against [3H]U-86,170-labeled dopamine receptor D2 in cloned CHO cells; assay type: cell-based
Sequence of D(2) dopamine receptor (Homo sapiens, UniProt P14416) (P14416 whole entry): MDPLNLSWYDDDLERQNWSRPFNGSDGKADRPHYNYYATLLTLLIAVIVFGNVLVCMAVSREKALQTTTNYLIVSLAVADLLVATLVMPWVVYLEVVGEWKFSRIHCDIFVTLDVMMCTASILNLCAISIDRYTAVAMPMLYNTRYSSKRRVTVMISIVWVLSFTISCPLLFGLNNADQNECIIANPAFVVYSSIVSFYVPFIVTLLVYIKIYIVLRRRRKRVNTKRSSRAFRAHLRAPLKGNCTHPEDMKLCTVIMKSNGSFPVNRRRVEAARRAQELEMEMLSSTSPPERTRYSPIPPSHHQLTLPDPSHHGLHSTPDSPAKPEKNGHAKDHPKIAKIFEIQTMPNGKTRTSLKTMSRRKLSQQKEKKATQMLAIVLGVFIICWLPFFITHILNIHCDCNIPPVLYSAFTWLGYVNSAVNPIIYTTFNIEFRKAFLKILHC

[25] = target: T1, D(2) dopamine receptor (Rattus norvegicus, UniProt P61169); assay: Binding affinity for [3H]raclopride-labeled dopamine receptor D2 in rat striatum; assay type: tissue-based
T1 sequence (P61169 whole entry): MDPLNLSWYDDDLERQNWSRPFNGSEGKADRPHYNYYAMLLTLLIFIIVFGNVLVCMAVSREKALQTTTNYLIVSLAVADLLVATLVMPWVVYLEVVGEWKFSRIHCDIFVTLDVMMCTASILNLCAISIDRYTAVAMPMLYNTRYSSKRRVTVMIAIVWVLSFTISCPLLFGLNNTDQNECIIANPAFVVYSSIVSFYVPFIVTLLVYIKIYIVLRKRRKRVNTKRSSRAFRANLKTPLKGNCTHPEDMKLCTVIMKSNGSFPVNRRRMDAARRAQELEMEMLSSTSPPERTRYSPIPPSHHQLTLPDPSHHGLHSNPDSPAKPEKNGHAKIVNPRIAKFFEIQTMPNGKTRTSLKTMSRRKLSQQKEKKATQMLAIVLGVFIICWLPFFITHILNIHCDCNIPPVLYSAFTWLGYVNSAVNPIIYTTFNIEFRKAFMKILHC

[26] = test system: Mus musculus; assay: Time of effect in the isolation-induced aggression behavioral assay in the mouse when a dose of 0.0 micro mol/kg is administered intraperitoneally; assay type: functional
[27] = test system: Mus musculus; assay: Time of effect in the isolation-induced aggression behavioral assay in the mouse when a dose of 1.1 micro mol/kg is administered intraperitoneally; assay type: functional
[28] = test system: Mus musculus; assay: Time of effect in the isolation-induced aggression behavioral assay in the mouse when a dose of 11 micro mol/kg is administered intraperitoneally (*,p<0.05); assay type: functional
[29] = test system: Mus musculus; assay: Time of effect in the isolation-induced aggression behavioral assay in the mouse when a dose of 3.5 micro mol/kg is administered intraperitoneally (*,p<0.05); assay type: functional
[30] = test system: Mus musculus; assay: Time of effect in the isolation-induced aggression behavioral assay in the mouse when a dose of 36 micro mol/kg is administered intraperitoneally (*,p<0.05); assay type: functional
[31] = test system: Mus musculus; assay: Time of effect in the isolation-induced aggression behavioral assay in the mouse when a dose of 0.4 micro mol/kg is administered intraperitoneally; assay type: functional
[32] = test system: Rattus norvegicus; assay: Effect on the synthesis rates of dopamine (DOPA accumulation) in the rat ventral limbic brain region at 3.5 umol/kg; assay type: functional, Limbic system
[33] = test system: Rattus norvegicus; assay: Effect on the synthesis rates of serotonin (5-HTP accumulation) in the rat ventral limbic brain region 3.5 umol/kg; assay type: functional, Limbic system
[34] = test system: Rattus norvegicus; assay: Inhibition of firing rates of dopaminergic neurons in the substantia nigra pars compacta by intravenous injection in rats; assay type: functional
[35] = test system: Rattus norvegicus; assay: Inhibition of firing rates of serotonergic neurons in the dorsal raphe nucleus by intravenous injection in rats; assay type: functional; conditions: Rattus norvegicus, Dorsal raphe nucleus, iv; read-out: ED50
[36] = test system: Mus musculus; assay: Ability to stimulate dopaminergic systems by effect on locomotor activity in reserpinized mice when a dose of 3.5 micro mol/kg is administered intraperitoneally (*,p<0.05); assay type: functional
[37] = test system: Mus musculus; assay: Ability to stimulate dopaminergic systems by effect on locomotor activity in reserpinized mice when a dose of 35 micro mol/kg is administered intraperitoneally (*,p<0.05); assay type: functional
[38] = test system: Mus musculus; assay: Ability to stimulate dopaminergic systems by effect on locomotor activity in reserpinized mice when a dose of 0.4 micro mol/kg is administered intraperitoneally; assay type: functional
[39] = test system: Mus musculus; assay: Antagonism of apomorphine in reserpinized mice when a dose of 0.4 micro mol/kg is administered intraperitoneally; assay type: functional
[40] = test system: Mus musculus; assay: Antagonism of apomorphine in reserpinized mice when a dose of 3.5 micro mol/kg is administered intraperitoneally; assay type: functional
[41] = test system: Mus musculus; assay: Antagonism of apomorphine in reserpinized mice when a dose of 35 micro mol/kg is administered intraperitoneally; assay type: functional
[42] = test system: Mus musculus; assay: Time of effect in the face-to-face behavioral assay in the mouse when a dose of 2.8 micro mol/kg is administered subcutaneously; assay type: functional
[43] = test system: Mus musculus; assay: Time of effect in the face-to-face behavioral assay in the mouse when a dose of 28 micro mol/kg is administered subcutaneously; assay type: functional
[44] = test system: Mus musculus; assay: Time of effect in the face-to-face behavioral assay in the mouse when a dose of 8.4 micro mol/kg is administered subcutaneously; assay type: functional
[45] = test system: Rattus norvegicus; assay: Effect on the synthesis rates of dopamine (DOPA accumulation) in the rat ventral limbic brain region at 3.7 uM/kg.; assay type: functional, Limbic system
[46] = species on record: Rattus norvegicus; assay: Effect on the synthesis rates of serotonin (5-HTP accumulation) in the rat ventral limbic brain region […]; assay type: functional, Limbic system
[47] = test system: Mus musculus; assay: Antagonism of apomorphine for 0-10 minutes in reserpinized mice when a dose of 0.4 micro mol/kg is administered intraperitoneally; assay type: functional
[48] = test system: Mus musculus; assay: Antagonism of apomorphine for 0-10 minutes in reserpinized mice when a dose of 3.7 micro mol/kg is administered intraperitoneally; assay type: functional
[49] = test system: Mus musculus; assay: Antagonism of apomorphine for 0-10 minutes in reserpinized mice when a dose of 37 micro mol/kg is administered intraperitoneally; assay type: functional
[50] = test system: Mus musculus; assay: Antagonism of apomorphine for 10-20 minutes in reserpinized mice when a dose of 3.7 micro mol/kg is administered intraperitoneally; assay type: functional
[51] = test system: Mus musculus; assay: Ability to stimulate dopaminergic systems by effect on locomotor activity in reserpinized mice when a dose of 3.7 micro mol/kg is administered intraperitoneally; assay type: functional
[52] = test system: Mus musculus; assay: Ability to stimulate dopaminergic systems by effect on locomotor activity in reserpinized mice when a dose of 37 micro mol/kg is administered intraperitoneally; assay type: functional
[53] = test system: Mus musculus; assay: Antagonism of apomorphine in reserpinized mice when a dose of 37 micro mol/kg is administered intraperitoneally; assay type: functional
[54] = test system: Mus musculus; assay: Antagonism of apomorphine for 10-20 minutes in reserpinized mice when a dose of 37 micro mol/kg is administered intraperitoneally; assay type: functional
[55] = test system: Mus musculus; assay: Antagonism of apomorphine in reserpinized mice when a dose of 3.7 micro mol/kg is administered intraperitoneally; assay type: functional
[56] = test system: Rattus norvegicus; assay: as §1; assay type: functional
[57] = target: T1, D(2) dopamine receptor; assay: Inhibitory concentration against [3H]raclopride-labeled dopamine receptor D2 in rat striatum; assay type: tissue-based
[58] = test system: Mus musculus; assay: Effective dose on hypothermia in mouse when administered subcutaneously (95% confidence levels); assay type: functional; conditions: sc
[59] = test system: Rattus norvegicus; assay: Effect on the synthesis rates of dopamine (DOPA accumulation) in the rat ventral limbic brain region at 3.4 uM/kg.; assay type: functional, Limbic system
[60] = test system: Rattus norvegicus; assay: Effect on the synthesis rates of serotonin (5-HTP accumulation) in the rat ventral limbic brain region 3.4 umol/kg.; assay type: functional, Limbic system
[61] = test system: Felis catus; assay: Maximum decrease of sympathetic nerve activity (SND) in anesthetized cat; assay type: functional; parameters: scale not given: the % may be the effect or the level left

Sequence of Sodium-dependent dopamine transporter (Rattus norvegicus) (P23977 whole entry): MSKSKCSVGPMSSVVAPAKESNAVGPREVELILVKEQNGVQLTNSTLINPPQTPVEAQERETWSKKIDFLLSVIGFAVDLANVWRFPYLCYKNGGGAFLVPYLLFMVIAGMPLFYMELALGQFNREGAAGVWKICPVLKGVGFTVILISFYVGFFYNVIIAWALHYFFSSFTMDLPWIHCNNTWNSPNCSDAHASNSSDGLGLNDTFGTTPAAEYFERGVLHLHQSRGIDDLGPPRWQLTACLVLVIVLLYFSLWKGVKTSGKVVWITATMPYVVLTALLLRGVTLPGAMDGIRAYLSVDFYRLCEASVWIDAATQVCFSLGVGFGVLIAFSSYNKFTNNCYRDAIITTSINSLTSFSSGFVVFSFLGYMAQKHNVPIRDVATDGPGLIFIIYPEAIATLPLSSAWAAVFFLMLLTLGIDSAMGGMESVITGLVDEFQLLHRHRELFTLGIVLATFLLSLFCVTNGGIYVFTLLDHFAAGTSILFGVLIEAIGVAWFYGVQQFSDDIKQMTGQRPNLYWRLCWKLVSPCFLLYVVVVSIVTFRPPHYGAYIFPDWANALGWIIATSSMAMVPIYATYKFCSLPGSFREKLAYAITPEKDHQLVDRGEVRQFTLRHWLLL

## CCCN(CCC)C1CCc2cccc(O)c2C1 (stereo unspecified) [8-OH-DPAT]
[1]
  ED50: 2.25 µmol/kg
[2]
  ED50: 0.005 µmol/kg
[3]
  ED50: 1 µmol/kg
[4]
  ED50: 9.7 µmol/kg
[5]
  Time: 1.1 s
[6]
  Time: 1.6 s
[7]
  Time: 5 s
[8]
  Time: 4.4 s
[9]
  Time: 20 s
[10]
  Time: 310 s
[11]
  Max temperature decrease: 7.2
[12]
  Max temperature decrease: 7.5
[13]
  Time: 351 s
[14]
  Time: 11 s
[15]
  Time: 437 s
[16]
  Control: 16%
[17]
  Control: -37%
[18]
  Control: -47%
[19]
  Control: 3%
[20]
  BP: 66%
[21]
  Control: 57%
[22]
  Control: 2%
[23]
  ED50: 0.03 µmol/kg

## CCCN1CC[C@@H]2Cc3c(cccc3OC)C[C@H]21 (racemic)
[24]
  Ki: 0.1 µM
[25]
  Ki: 0.877 µM
[3]; Mus musculus, read-out: ED50
  ED50: 0.4 µmol/kg
[4]
  ED50: > 355 µmol/kg
[26]
  Time: 9 s
[27]
  Time: 134 s
[28]
  Time: 268 s
[11]
  Max temperature decrease: 6.7
[12]
  Max temperature decrease: 1.4
[29]
  Time: 384 s
[30]
  Time: 450 s
[31]
  Time: 6 s
[32]
  Control: -39%
[33]
  Control: -29%
[34]
  ED50: 0.66 µmol/kg
[35]
  ED50: 0.07 µmol/kg
[36]
  Locomotor activity: 1168
[37]
  Locomotor activity: 561
[38]
  Locomotor activity: 251
[39]
  Locomotor activity: 148
[40]
  Locomotor activity: 129
[41]
  Locomotor activity: 61

## CN(C)CCCN1c2ccccc2Sc2ccc(Cl)cc21.Cl [CHLORPROMAZINE HYDROCHLORIDE]
[5]
  Time: 3.6 s
[42]
  Time: 5.8 s
[43]
  Time: 0 s
[44]
  Time: 1.3 s

## CCCN1CC[C@@H]2Cc3c(O)cccc3C[C@H]21
[24]
  Ki: 0.0005 µM
[25]
  Ki: 0.002 µM
[3]; Mus musculus, read-out: ED50
  ED50: 0.03 µmol/kg
[4]
  ED50: 0.04 µmol/kg
[11]
  Max temperature decrease: 7.5
[12]
  Max temperature decrease: 10.9
[45]
  Control: -45%
[46]
  Control: -9.5%
[47]
  Locomotor activity: 48
[48]
  Locomotor activity: 52
[49]
  Locomotor activity: 93
[50]
  Locomotor activity: 62
[51]
  Locomotor activity: 1014
[52]
  Locomotor activity: 1625
[38]
  Locomotor activity: 739
[53]
  Locomotor activity: 43
[54]
  Locomotor activity: 53
[39]
  Locomotor activity: 56
[55]
  Locomotor activity: 47
[56]
  ED50: 0.0014 µmol/kg

## CCCN1[C@@H](C)C[C@@H]2Cc3cccc(OC)c3C[C@@H]21 (racemic)
[24]
  Ki: 0.464 µM
[57]
  IC50: > 1 µM
[58]
  ED50: 4.4 µmol/kg
[4]
  ED50: > 101 µmol/kg
[11]
  Max temperature decrease: 7.8
[12]
  Max temperature decrease: 3.1
[59]
  Control: 32%
[60]
  Control: -44%
[20]
  BP: 85%
[21]
  Control: 63%
[61]
  Control: 25%
[23]
  ED50: 1.18 µmol/kg
